# Assay results: patent US20110245249A1, “Heterocyclically Substituted Anilinopyrimidines” (Bayer CropScience AG, priority 2008, published 2011)
# Assay: logP by HPLC on reversed-phase columns (EEC Directive 79/831 Annex V.A8)
# Assay type: physicochemical
# Details: for log p [b]: pH 2.7; for log p [c]: pH 7.8; for log p [a]: pH 2.3
# Protocol: The logP values were measured in accordance with EEC Directive 79/831 Annex V.A8 by HPLC (High Performance Liquid Chromatography) on reversed-phase columns (C 18) using the methods below:
# [a] The determination was carried out in the acidic range at pH 2.3 using the mobile phases 0.1% aqueous phosphoric acid and acetronitrile linear gradient from 10% acetonitrile to 95% acetronitrile. [b] The LC-MS determination in the acid range was carried out at pH 2.7 using the mobile phases 0.1% aqueous formic acid and acetonitrile (contains 0.1% formic acid) linear gradient from 10% acetonitrile to 95% acetonitrile. [c] The LC-MS determination in the neutral range was carried out at pH 7.8 using the mobile phases 0.001 molar aqueous ammonium bicarbonate solution and acetonitrile linear gradient from 10% acetonitrile to 95% acetonitrile.
"chromatographic logP (pH 2.7, logP (pH 2.7))",Molecule,log p [b],log p [c],also measured
–,2-Chloro-{[5-chloro-4-(cyclopropylamino)pyrimidin-2-yl]amino}benzenecarbaldehyde,–,–,"logP (pH 2.7) (pH 2.7, LC-MS, 0.1% aqueous formic acid/acetonitrile): 2.68"
3.24,CC(=O)c1cccc(Nc2ncc(C(F)(F)F)c(NC3CCC3)n2)c1 [1-(3-{[4-(Cyclobutylamino)-5-(trifluoromethyl)pyrimidin-2-yl]amino}phenyl)ethanone],–,–,–
2.72,CC(=O)c1cccc(Nc2ncc(C(F)(F)F)c(NC3CC3)n2)c1 [1-(3-{[4-(Cyclopropylamino)-5-(trifluoromethyl)pyrimidin-2-yl]amino}phenyl)ethanone],–,–,–
1.75,CC(=O)c1cccc(Nc2ncc(Cl)c(NC3CC3)n2)c1 [1-(3-{[5-Chloro-4-(cyclopropylamino)pyrimidin-2-yl]amino}phenyl)ethanone],–,–,–
2.25,CCC(=O)c1cccc(Nc2ncc(Cl)c(NC3CC3)n2)c1 [1-(3-{[5-Chloro-4-(cyclopropylamino)pyrimidin-2-yl]amino}phenyl)propan-1-one],–,–,–
1.93,CC(=O)c1ccc(Nc2ncc(Cl)c(NC3CC3)n2)cc1 [1-(4-{[5-Chloro-4-(cyclopropylamino)pyrimidin-2-yl]amino}phenyl)ethanone],–,–,–
2.77,CC(=O)c1cccc(Nc2ncc(C(F)(F)F)c(NCC3CC3)n2)c1 [1-[3-({4-[(Cyclopropylmethyl)amino]-5-(trifluoromethyl)pyrimidin-2-yl}amino)phenyl]-ethanone],–,–,–
–,CC1CC1Nc1nc(Nc2cccc(C=O)c2)ncc1Cl (stereo not shown) [3-((5-Chloro-4-[(2-methylcyclopropyl)amino]pyrimidin-2-yl)amino)benzaldehyde],–,–,"chromatographic logP (pH 2.3, logP (pH 2.3)): 2.11"
1.8,COCC(C)Nc1nc(Nc2cccc(C=O)c2)ncc1Cl (stereo not shown) [3-({5-Chloro-4-[(1-methoxypropan-2-yl)amino]pyrimidin-2-yl}amino)benzenecarbaldehyde],–,–,–
2.46,"O=Cc1cccc(Nc2ncc(Cl)c(NCC(F)(F)F)n2)c1 [3-({5-Chloro-4-[(2,2,2-trifluoroethyl)amino]pyrimidin-2-yl}amino)benzenecarbaldehyde]",–,–,–
2.01,"O=Cc1cccc(Nc2ncc(Cl)c(NCC(F)F)n2)c1 [3-({5-Chloro-4-[(2,2-difluoroethyl)amino]pyrimidin-2-yl}amino)benzenecarbaldehyde]",–,–,–
1.94,O=Cc1cccc(Nc2ncc(Cl)c(NCC3CC3)n2)c1 [3-({5-Chloro-4-[(cyclopropylmethyl)amino]pyrimidin-2-yl}amino)benzenecarbaldehyde],–,–,–
2.84,CN(c1nc(Nc2cccc(C=O)c2)ncc1Cl)C1CC1 [3-({5-Chloro-4-[cyclopropyl(methyl)amino]pyrimidin-2-yl}amino)benzenecarbaldehyde],–,–,–
3.26,O=Cc1cccc(Nc2ncc(C(F)(F)F)c(NC3CCC3)n2)c1 [3-{[4-(Cyclobutylamino)-5-(trifluoromethyl)pyrimidin-2-yl]amino}benzenecarbaldehyde],–,–,–
2.73,O=Cc1cccc(Nc2ncc(C(F)(F)F)c(NC3CC3)n2)c1 [3-{[4-(Cyclopropylamino)-5-(trifluoromethyl)pyrimidin-2-yl]amino}benzenecarbaldehyde],–,–,–
1.26,O=Cc1cccc(Nc2ncc(F)c(NC3CC3)n2)c1 [3-{[4-(Cyclopropylamino)-5-fluoropyrimidin-2-yl]amino}benzenecarbaldehyde],–,–,–
1.96,O=Cc1cccc(Nc2ncc(I)c(NC3CC3)n2)c1 [3-{[4-(Cyclopropylamino)-5-iodopyrimidin-2-yl]amino}benzenecarbaldehyde],–,–,–
1.13,Cc1cnc(Nc2cccc(C=O)c2)nc1NC1CC1 [3-{[4-(Cyclopropylamino)-5-methylpyrimidin-2-yl]amino}benzenecarbaldehyde],–,–,–
2.35,O=Cc1cccc(Nc2ncc(Br)c(NC3CCC3)n2)c1 [3-{[5-Bromo-4-(cyclobutylamino)pyrimidin-2-yl]amino}benzenecarbaldehyde],–,–,–
1.93,O=Cc1cccc(Nc2ncc(Br)c(NC3CC3)n2)c1 [3-{[5-Bromo-4-(cyclopropylamino)pyrimidin-2-yl]amino}benzenecarbaldehyde],–,–,–
2.16,O=Cc1cccc(Nc2ncc(Cl)c(NC3CCC3)n2)c1 [3-{[5-Chloro-4-(cyclobutylamino)pyrimidin-2-yl]amino}benzenecarbaldehyde],–,–,–
1.82,O=Cc1cccc(Nc2ncc(Cl)c(NC3CC3)n2)c1 [3-{[5-Chloro-4-(cyclopropylamino)pyrimidin-2-yl]amino}benzenecarbaldehyde],–,–,–
1.86,CC(C)Nc1nc(Nc2cccc(C=O)c2)ncc1Cl [3-{[5-Chloro-4-(isopropylamino)pyrimidin-2-yl]amino}benzaldehyde],–,–,–
1.74,C#CCNc1nc(Nc2cccc(C=O)c2)ncc1Cl [3-{[5-Chloro-4-(prop-2-yn-1-ylamino)pyrimidin-2-yl]amino}benzenecarbaldehyde],–,–,–
–,CC1(C)COC(c2cccc(Nc3ncc(Cl)c(NC4CC4)n3)c2)OC1 [Example 2],2.45[b],–,–
–,CC1OC(c2cccc(Nc3ncc(Cl)c(NC4CC4)n3)c2)OC1C (stereo not shown) [Example 3],2.2[b],–,–
–,SCCOC(OCCS)c1cccc(Nc2ncc(Cl)c(NC3CC3)n2)c1 [Example 4],1.36,2.03,–
–,CCC1COC(c2cccc(Nc3ncc(Cl)c(NC4CC4)n3)c2)O1 (stereo not shown) [Example 7],2.29,3.48,–

"chromatographic logP (pH 2.7, logP (pH 2.7))",Molecule,log p [b],log p [c],also measured
–,CC1COC(c2cccc(Nc3ncc(Cl)c(NC4CC4)n3)c2)O1 (stereo not shown) [Example 8],1.9[b],–,–
–,CC1CC(C)OC(c2cccc(Nc3ncc(Cl)c(NC4CC4)n3)c2)O1 (stereo not shown) [Example 9],2.26,3.51,–
–,CC1(c2cccc(Nc3ncc(C(F)(F)F)c(NCC4CC4)n3)c2)OCCO1 [Example 10],3.15[b],3.79,log p [a]: 3.16
–,CC1(c2cccc(Nc3ncc(C(F)(F)F)c(NC4CC4)n3)c2)OCCO1 [Example 11],3.03,3.46,–
–,Brc1cnc(Nc2cccc(C3OCCO3)c2)nc1NC1CC1 [Example 13],1.75,2.82,–
–,Brc1cnc(Nc2cccc(C3OCCCO3)c2)nc1NC1CC1 [Example 15],–,2.97,–
–,CC1OC(c2cccc(Nc3ncc(Br)c(NC4CCC4)n3)c2)OC1C (stereo not shown) [Example 17],2.67,4.12,–
–,Clc1cnc(Nc2cccc(C3OCCO3)c2)nc1NCC1CC1 [Example 18],1.73,3.06,–
–,CC1(C)COC(c2cccc(Nc3ncc(Cl)c(NC4CCC4)n3)c2)OC1 [Example 19],2.57[b],4.13,log p [a]: 2.29
–,Brc1cnc(Nc2cccc(C3OCCO3)c2)nc1NC1CCC1 [Example 20],2.05,3.39,–
–,CC1(C)COC(c2cccc(Nc3ncc(Br)c(NC4CCC4)n3)c2)OC1 [Example 21],3,4.51,–
–,CC1(C)COC(c2cccc(Nc3ncc(C(F)(F)F)c(NC4CC4)n3)c2)OC1 [Example 25],3.7,4.07,–
–,CC1(C)COC(c2cccc(Nc3ncc(C(F)(F)F)c(NC4CCC4)n3)c2)OC1 [Example 26],4.22,4.62,–
–,Clc1cnc(Nc2cccc(C3OCC(c4ccccc4)O3)c2)nc1NC1CC1 (stereo not shown) [Example 29],–,3.93[c],–
–,Clc1cnc(Nc2cccc(C3OCCO3)c2)nc1NC1CCC1 [Example 31],1.91,3.23,–
–,Clc1cnc(Nc2cccc(C3OC4COCC4O3)c2)nc1NC1CC1 (stereo not shown) [Example 32],1.55[b],–,–
–,ClCC1COC(c2cccc(Nc3ncc(Cl)c(NC4CC4)n3)c2)O1 (stereo not shown) [Example 33],2.19,–,log p [a]: 1.85
–,C=CCOCC1COC(c2cccc(Nc3ncc(Cl)c(NC4CC4)n3)c2)O1 (stereo not shown) [Example 34],2.25,3.39,–
2.44,"Clc1cnc(Nc2cccc(C3SCCCS3)c2)nc1NC1CC1 [Example 35, 5-Chloro-N^4-cyclopropyl-N^2-[3-(1,3-dithian-2-yl)phenyl]pyrimidine-2,4-diamine]",–,–,"chromatographic logP (pH 2.7, log p [b]): 2.44; chromatographic logP (pH 7.8, log p [c]): 3.65"
–,COc1ccc(OCC2COC(c3cccc(Nc4ncc(Cl)c(NC5CC5)n4)c3)O2)cc1 (stereo not shown) [Example 36],2.64,3.78,–
–,O=[N+]([O-])c1ccccc1C1COC(c2cccc(Nc3ncc(Cl)c(NC4CC4)n3)c2)O1 (stereo not shown) [Example 37],2.89,4,–
–,CCCCCCC1COC(c2cccc(Nc3ncc(Cl)c(NC4CC4)n3)c2)O1 (stereo not shown) [Example 38],4.14,5.29,–
–,CCCCC1COC(c2cccc(Nc3ncc(Cl)c(NC4CC4)n3)c2)O1 (stereo not shown) [Example 39],3.16,4.4,–
1.05,"CCN(CC)CC1COC(c2cccc(Nc3ncc(Cl)c(NC4CC4)n3)c2)O1 (stereo not shown) [Example 40, 5-Chloro-N^4-cyclopropyl-N^2-(3-{4-[(diethylamino)methyl]-1,3-dioxolan-2-yl}phenyl)-pyrimidine-2,4-diamine]",–,–,"chromatographic logP (pH 2.7, log p [b]): 1.07; chromatographic logP (pH 7.8, log p [c]): 3.9"
–,Clc1cnc(Nc2cccc(C3OCC(CN4CCOCC4)O3)c2)nc1NC1CC1 (stereo not shown) [Example 41],–,2.54[c],–
–,OCC1COC(c2cccc(Nc3ncc(Cl)c(NC4CC4)n3)c2)O1 (stereo not shown) [Example 42],1.16,1.96,–
–,Clc1cnc(Nc2cccc(C3OCC(CN4CCCC4)O3)c2)nc1NC1CC1 (stereo not shown) [Example 43],0.99[b],–,–
